Measured values as given in US20210145801A1, “THERAPY FOR PROTEIN MISFOLDING DISEASE” (WREN THERAPEUTICS LIMITED, priority 2018, published 2021).
“Also recorded” adds a separate entry of the source.

Assays:
[1] = test system: ROS production in AD worms; assay: ROS production (ROS-Glo H2O2 assay) in AD worms; format: in vivo, C. elegans; conditions: 5 μM administered at L4; D5 of adulthood
Procedure: ROS-Glo™ H2O2 cell kit assay was used (Promega, Fitchburg, Wis., USA) and adapted for C. elegans studies. The ROS-Glo™ H2O2 Assay is a bioluminescent assay that measures the level of H2O2, a reactive oxygen species (ROS), directly in cell culture or tissue or in defined enzyme reactions. A derivatized luciferin substrate is incubated with sample and reacts directly with H2O2 to generate a luciferin precursor. Worms treated with 5 μM Netoglitazone in 1% DMSO or 1% DMSO only were washed using M9 buffer out the NGM plates. The buffer was then changed 3 times to remove the excess bacteria. Worm pellets were then divided in three wells and 80 μl of worm pellet (around 200 worms/well) was incubated for 6 h at RT with 20 μl of a ROS Substrate Solution (Promega, Fitchburg, Wis., USA); mild shaking at 300 rpm was used to avoid worm sedimentation; afterwards, worms were incubated for ca. 20 min with 100 μl of the detection solution; luminescence was then measured with a Clariostar (BMG Labtech, Aylesbury, UK).

[2] = target: T1, Aβ42 (Homo sapiens, UniProt P05067); assay: Aβ42 aggregation kinetics in human CSF; format: biochemical; conditions: 66% CSF; 1.25 and 5-fold excess
T1 construct: made in house; host or cells: E. coli BL21 Gold (DE3)
Procedure: For the experiments of Aβ42 aggregation kinetics in human CSF, monomeric solutions of 3 μM Aβ42 were prepared similar to above with the only exception that the buffer was 20 mM Hepes, pH 8 supplemented with 1 mM CaCl2 at 150 mM NaCl. The obtained monomer was diluted with the […] in order to reach 66% final concentration of CSF, in which the effect of CSF is close to maximum. Aβ42 aggregation kinetics were performed in the absence and the presence of 1.25 and 5-fold excess of Netoglitazone.

[3] = test system: PD worms (NL5901); assay: Automated motility assay in PD worms; format: in vivo, C. elegans; conditions: same concentration range as in AD worms
Procedure: Standard conditions were used for the propagation of C. elegans (S. Brenner, The genetics of Caenorhabditis elegans. Genetics. 77, 71-94 (1974)). Briefly, the animals were synchronized by hypochlorite bleaching, hatched overnight in M9 buffer (3 g/l KH2PO4, 6 g/l Na2HPO4, 5 g/l NaCl, […]), and subsequently cultured at 20° C. on nematode growth medium (NGM) (CaCl2) 1 mM, MgSO4 1 mM, cholesterol 5 μg/mL, PBS Buffer (250 μM KH2PO4, 67.5 μM KCl, 3.425 mM of NaCl, pH 6), Agar 17 g/L, NaCl 3 g/1, casein 7.5 g/l) plates seeded with the E. coli strain OP50. […]
All C. elegans populations were cultured at 20° C. and developmentally synchronized from a 4 h egg-lay. At 64-72 h post-egg-lay (time zero), individuals were transferred to FUDR plates, and body movements were assessed over the times indicated. At different ages, the animals were washed off the plates with M9 buffer and spread over an OP-50 unseeded 9 cm plate, after which their movements were recorded at 20 fps using a recently developed microscopic procedure (M. Perni et al., Massively parallel C. elegans tracking provides multi-dimensional fingerprints for phenotypic discovery. J. Neurosci. Methods. 306, 57-67 (2018)) for 1 min. Up to 600 animals were counted in each experiment in duplicate unless stated otherwise. […]

[4] = target: T2, Aβ42 oligomers (Homo sapiens, UniProt P05067); assay: Ca2+ influx assay (lipid vesicle disruption); format: biochemical; conditions: 2 μM Aβ42; 5-fold excess added at 0 h; measured at 2 h (half-time)
T2 construct: made in house; host or cells: E. coli BL21 Gold (DE3)
Procedure: Single vesicles tethered to PLL-PEG coated borosilicate glass coverslides (VWR International, 22×22 mm, product number 63 1-0122) were placed on an oil immersion objective mounted on an inverted Olympus IX-71 microscope. Each coverslide was affixed at Frame-Seal incubation chambers and was incubated with 50 μL of HEPES buffer of pH 6.5. Just before the imaging, the HEPES buffer was replaced with 50 μL Ca^2+ containing buffer solution L-15. 16 (4×4) images of the coverslide were recorded under three different conditions (background, in the presence of Aβ42 and after addition of ionomycin (Cambridge Bioscience Ltd, Cambridge, UK), respectively). The distance between each field of view was set to 100 μm, and was automated (bean-shell script, Micromanager) to avoid any user bias. After each measurement the script allowed the stage (Prior H117, Rockland, Mass., USA) to move the field of view back to the start position such that identical fields of view could be acquired for the three different conditions. Images of the background were acquired in the presence of L15 buffer. For each field of view 50 images were taken with an exposure time of 50 ms. […] The recorded images were analysed using ImageJ to determine the fluorescence intensity of each spot under the three different conditions in the presence of an aggregation mixture incubated with and without Netoglitazone.

T2 sequence (P05067 671-713): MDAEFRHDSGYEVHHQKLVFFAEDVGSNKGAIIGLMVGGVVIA
T1 sequence (P05067 671-713): as above

## O=C1NC(=O)C(Cc2ccc3cc(OCc4ccccc4F)ccc3c2)S1 (stereo not shown) [Netoglitazone]
[1]
  ROS production / levels of oxidative species in AD worms: significantly decreased the levels of oxidative species; also recorded: restores the ROS production in AD worms to normal levels
[2]
  Delay of Aβ42 aggregation kinetics in 66% human CSF: significantly delayed the aggregation kinetics in a concentration-dependent manner
[3]
  Effect on mobility of PD worms: negligible compared to the observed effect in AD worms
[4]
  Protection against lipid vesicle disruption by Aβ42 oligomers (Ca2+ influx): protected against the neurotoxic species-induced vesicle disruption; also recorded: decreased substantially the toxic effect
